Consider 3 compounds from US20250361253A1, “STING AGONIST COMPOUNDS” (Sutro Biopharma, Inc., priority 2022, published 2025).

As a reminder, the Kd is the constant that tells how readily two partners part at equilibrium. Usually EC50 stands for the concentration at which the effect is half-maximal.

For test [1], the target named is T1, hSTING WT (Homo sapiens, UniProt Q86WV6). Briefly: Surface plasmon resonance assay. The test is classed as binding. Particulars: read-out: hSTING WT SPR (Kd). On the procedure: Surface plasmon resonance assay experimental methods were followed based on the published methods described in Pan et al., Science, 2020 369, eaba6098. (“A” means EC50≤20 nM).
Test [2] has as its target T2, hSTING-R232 (Homo sapiens, UniProt Q86WV6, H232R).
T2 construct: host or cells: 293-Dual (HEK293-derived) reporter cells
In words: ISG reporter induction in 293-Dual hSTING-R232 reporter cells (QUANTI-Blue). The class given is cell-based. To be noted: 293-Dual hSTING-R232 cells, overnight incubation. On the procedure:
(§1) Certain STING compounds of the disclosure were evaluated in an in vitro cell based assay.
(§2) 293-Dual hSTING-R232 and mSTING cells (Invivogen) were seeded at 25,000 cells/well (50 ul) and co-cultured with STING agonists (2× concentration, 50 ul) in clear, half-area, 96-well polystyrene plates. Cells and test samples were prepared in DMEM supplemented with 10% FBS, Glutamax, and PenStrep. After overnight incubation at 37 C in a CO2 incubator, 20 ul of supernatant was added to QUANTI-Blue detection reagent (Invivogen). After one hour incubation at 37 C, plates were read at 640/650 nm on EnVision plate reader (PerkinElmer). OD values were plotted by log(agonist) vs. response, variable slope, four parameter curve fit (Log transform) using GraphPad Prism software to determine EC50 values.

For test [3], the target named is T1, hSTING WT. In words: Thermal shift assay (DSF). The class given is binding. Details: unit not given here. To be noted: compound at 3.12 uM. The source says:
Thermal shift assay experimental methods were followed based on the published methods described in Ramanjulu et al. Nature, 2018, 564, 439.

In test [4] the target is T3, mSTING (Mus musculus, UniProt Q3TBT3).
T3 construct: host or cells: 293-Dual (HEK293-derived) reporter cells
T3 sequence (Q3TBT3 1-378): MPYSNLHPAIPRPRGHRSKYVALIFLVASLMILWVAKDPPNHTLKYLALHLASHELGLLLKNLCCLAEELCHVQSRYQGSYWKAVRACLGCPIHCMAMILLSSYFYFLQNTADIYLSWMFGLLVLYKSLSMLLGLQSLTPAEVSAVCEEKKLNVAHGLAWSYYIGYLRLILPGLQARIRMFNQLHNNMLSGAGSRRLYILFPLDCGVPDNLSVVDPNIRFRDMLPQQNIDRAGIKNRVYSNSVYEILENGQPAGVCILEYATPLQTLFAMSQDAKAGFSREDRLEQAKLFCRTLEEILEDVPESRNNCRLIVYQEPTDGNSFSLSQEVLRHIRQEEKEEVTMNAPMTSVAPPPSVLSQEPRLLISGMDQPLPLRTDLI
Briefly: ISG reporter induction in 293-Dual mSTING reporter cells (QUANTI-Blue). The class given is cell-based. To be noted: 293-Dual mSTING cells, overnight incubation. As to the method:
as §1, §2

T1 sequence (Q86WV6 155-341 H232R limits assumed): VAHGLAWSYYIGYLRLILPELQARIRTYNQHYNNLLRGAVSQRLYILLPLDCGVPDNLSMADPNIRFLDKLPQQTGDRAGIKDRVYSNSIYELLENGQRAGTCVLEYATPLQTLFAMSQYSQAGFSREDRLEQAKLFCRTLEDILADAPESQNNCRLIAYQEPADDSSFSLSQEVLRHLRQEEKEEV
T2 sequence (Q86WV6 whole entry H232R): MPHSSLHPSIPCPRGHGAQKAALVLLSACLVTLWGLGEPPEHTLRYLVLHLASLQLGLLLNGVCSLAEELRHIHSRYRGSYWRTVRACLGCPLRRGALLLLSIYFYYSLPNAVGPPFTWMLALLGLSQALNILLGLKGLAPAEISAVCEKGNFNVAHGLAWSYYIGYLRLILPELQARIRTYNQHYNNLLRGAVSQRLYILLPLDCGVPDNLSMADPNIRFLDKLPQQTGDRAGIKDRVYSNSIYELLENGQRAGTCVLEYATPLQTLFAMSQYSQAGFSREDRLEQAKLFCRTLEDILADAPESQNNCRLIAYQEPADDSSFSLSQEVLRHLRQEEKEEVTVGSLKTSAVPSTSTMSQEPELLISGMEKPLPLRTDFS

`COc1cc2sc(C(=O)CC(C)(C)C(=O)O)cc2c(F)c1OCCCOc1c(OC)cc2sc(C(=O)CS(=O)(=O)O)cc2c1F` [Compound 1, 4-(4-Fluoro-5-(3-((4-fluoro-6-methoxy-2-(2-sulfoacetyl)benzo[b]thiophen-5-yl)oxy)propoxy)-6-methoxybenzo[b]thiophen-2-yl)-2,2-dimethyl-4-oxobutanoic acid]: the Kd in test [1] was ≤ 20 nM. In addition, the EC50 in test [2] was > 150 nM; in test [4] it was 50 to 150 nM. Also, the “hSTING WT DSF (delta TmD @ 3.12 uM)” value in test [3] worked out at 20.
For `COc1cc2sc(C(=O)CC(C)(C)C(=O)O)cc2c(F)c1OCCCOc1c(OC)cc2sc(C(=O)CP(=O)(O)O)cc2c1F` [Compound 6, 4-(4-Fluoro-5-(3-((4-fluoro-6-methoxy-2-(2-phosphonoacetyl)benzo[b]thiophen-5-yl)oxy)propoxy)-6-methoxybenzo[b]thiophen-2-yl)-2,2-dimethyl-4-oxobutanoic acid] the same measures were ≤ 20 nM, ≤ 50 nM, ≤ 50 nM and 20.
With `COc1cc2sc(C(=O)CCC(=O)O)cc2c(F)c1OCCCOc1c(OC)cc2sc(C(=O)CCP(=O)(O)O)cc2c1F` [Compound 7, 4-(4-Fluoro-5-(3-((4-fluoro-6-methoxy-2-(3-phosphonopropanoyl)benzo[b]thiophen-5-yl)oxy)propoxy)-6-methoxybenzo[b]thiophen-2-yl)-4-oxobutanoic acid], the Kd in test [1] was ≤ 20 nM. For the same compound, the EC50 in test [2] and in test [4] was ≤ 50 nM in each case. Further, the “hSTING WT DSF (delta TmD @ 3.12 uM)” value in test [3] is on record as 20.
